In brackets after ≈: the same amount, converted by molar mass.
How the values were obtained:
Experiment in all cases: ≥ marks a high value that may be exact or a test limit, other limits are often not marked, values filed in µg/mL are converted to µM
[1] = test system: Staphylococcus aureus ATCC 25923
[2] = test system: Escherichia coli ATCC 25922
[3] = test system: Staphylococcus aureus CIB 85462
[4] = test system: Candida albicans CIB 45437
[5] = test system: Escherichia coli CIB 84492
[6] = test system: Klebsiella pneumoniae ATCC 700603
[7] = test system: Acinetobacter baumannii I NM8
[8] = test system: Escherichia coli ATCC 25726
[9] = test system: Batrachochytrium dendrobatidis JEL-197
[10] = test system: Pseudomonas aeruginosa ATCC 27853
[11] = test system: Bordetella bronchiseptica CUN 11844-99
[12] = test system: Stenotrophomonas maltophilia CUN 3998-00
[13] = test system: Staphylococcus aureus ATCC 43300
[14] = test system: Staphylococcus aureus CUN 3792-99
[15] = test system: Acinetobacter baumannii ATCC 19606
[16] = test system: Pseudomonas aeruginosa CUN 4158-02
[17] = test system: Candida albicans ATCC 90028
[18] = test system: Staphylococcus aureus NCTC 8325
[19] = test system: Klebsiella pneumoniae KK3 9904
[20] = test system: Enterobacter cloacae NHTCC 53001
[21] = test system: Enterococcus faecalis CGMCC 1.595
[22] = test system: Enterobacter cloacae CGMCC 1.58
[23] = test system: Klebsiella aerogenes CGMCC 1.876
[24] = test system: Lactobacillus acidophilus CGMCC 1.1854
[25] = test system: Enterococcus faecium CGMCC 1.2334
[26] = test system: Klebsiella pneumoniae subsp. pneumoniae CGMCC 1.176
Escherichia coli AS1.349 = test system: Escherichia coli AS1.349
Escherichia coli = test system: Escherichia coli
[27] = test system: Lactococcus lactis AS1.1690
[28] = test system: Streptococcus mutans CGMCC 1.2500
Bacillus cereus = test system: Bacillus cereus
[29] = test system: Escherichia coli ATCC 11775
[30] = test system: Pseudomonas aeruginosa CGMCC 1.860
[31] = test system: Streptococcus salivarius CGMCC 1.2498
[32] = test system: Fusobacterium nucleatum CGMCC 1.2526
[33] = test system: Staphylococcus aureus ATCC 12600
[34] = test system: Candida albicans CMCC 98001
[35] = test system: Streptococcus sanguinis CGMCC 1.2497
Bacillus cereus AS1.126 = test system: Bacillus cereus AS1.126
Lactococcus lactis = test system: Lactococcus lactis
Staphylococcus aureus = test system: Staphylococcus aureus
[36] = test system: Staphylococcus aureus AS1.72

`CC[C@H](C)[C@@H]1NC(=O)[C@H](C)NC(=O)[C@@H](NC(=O)[C@H](Cc2ccccc2)NC(=O)[C@@H](NC(=O)[C@@H](NC(=O)[C@@H]2CCCN2C(=O)[C@H](CC(C)C)NC(=O)[C@@H](NC(=O)[C@H](CC(N)=O)NC(=O)[C@H](C)NC(=O)[C@H](C)NC(=O)[C@@H](NC(=O)[C@H](CCCN=C(N)N)NC(=O)[C@@H](NC(=O)[C@@H](NC(=O)[C@H](C)NC(=O)[C@@H]2CCCN2C(=O)[C@H](CC(C)C)NC(=O)[C@@H](N)Cc2ccccc2)C(C)C)[C@@H](C)CC)C(C)C)C(C)C)[C@@H](C)O)C(C)C)CSSC[C@@H](C(=O)O)NC(=O)[C@H](CCCCN)NC(=O)[C@H](CCCCN)NC(=O)[C@H](CO)NC1=O` [FLPAVIRVAANVLPTVFCAISKKC] was tested, and the MIC [1] was 6.25 µM (≈ 16 µg/mL), the MIC [2] was 50 µM (≈ 128 µg/mL) and the MIC [3] was 12.5 µM (≈ 32 µg/mL). For the same molecule, the MIC [4] was ≥ 50 µM and the MIC [5] was 25 µM (≈ 64 µg/mL).

`CC(C)C[C@H](NC(=O)CNC(=O)CNC(=O)[C@H](CCCCN)NC(=O)[C@H](C)NC(=O)[C@H](Cc1ccccc1)NC(=O)[C@H](CCCCN)NC(=O)[C@H](CCCCN)NC(=O)[C@H](CC(C)C)NC(=O)CNC(=O)[C@H](CCC(=O)O)NC(=O)[C@H](CC(C)C)NC(=O)[C@H](C)NC(=O)[C@H](CO)NC(=O)[C@H](CO)NC(=O)[C@H](Cc1c[nH]c2ccccc12)NC(=O)[C@H](Cc1ccccc1)NC(=O)CN)C(=O)N[C@@H](CCC(=O)O)C(=O)N[C@@H](C)C(=O)N[C@@H](CC(C)C)C(=O)N[C@H](C(=O)N[C@@H](CC(N)=O)C(=O)N1CCC[C@H]1C(=O)N[C@@H](CCCCN)C(=O)O)[C@@H](C)O` [GFWSSALEGLKKFAKGGLEALTNPK] was tested, and the MIC [1] was > 100 µM, the MIC [6] was > 50 µM and the MIC [7] was 12.5 µM (≈ 33.1 µg/mL). The MIC [8] was ≥ 50 µM.

In the case of `CC[C@H](C)[C@H](NC(=O)CN)C(=O)N[C@@H](CC(C)C)C(=O)N[C@@H](CC(=O)O)C(=O)N[C@H](C(=O)N[C@@H](Cc1ccccc1)C(=O)N[C@@H](CCCCN)C(=O)NCC(=O)N[C@H](C(=O)N[C@@H](C)C(=O)N[C@@H](CCCCN)C(=O)NCC(=O)N[C@H](C(=O)N[C@@H](C)C(=O)N[C@@H](CCCCN)C(=O)N[C@@H](CC(=O)O)C(=O)N[C@@H](CC(C)C)C(=O)N[C@@H](C)C(=O)N[C@H](C(=O)N[C@@H](Cc1cnc[nH]1)C(=O)N[C@@H](CCSC)C(=O)N[C@@H](CC(C)C)C(=O)N[C@@H](CCC(=O)O)C(=O)N[C@@H](CC(N)=O)C(=O)N[C@@H](CC(C)C)C(=O)N[C@@H](CCCCN)C(=O)N[C@H]1CSSC[C@@H](C(=O)O)NC(=O)CNC(=O)[C@H]([C@@H](C)O)NC(=O)[C@H](CCSC)NC(=O)[C@H](CCCCN)NC1=O)C(C)C)C(C)C)C(C)C)[C@@H](C)O` [GILDTFKGVAKGVAKDLAVHMLENLKCKMTGC], the MIC [9] is reported as ≥ 50 µM, the MIC [1] is reported as 100 µM (≈ 339 µg/mL) and the MIC [8] is reported as ≥ 50 µM.

For `NCCCC[C@H](NC(=O)CNC(=O)[C@H](CCCCN)NC(=O)[C@H](Cc1ccccc1)NC(=O)[C@H](CCCCN)NC(=O)[C@H](Cc1c[nH]c2ccccc12)NC(=O)[C@H](Cc1ccccc1)NC(=O)[C@H](CCCN=C(N)N)NC(=O)[C@H](CCCN=C(N)N)NC(=O)[C@H](Cc1ccc(O)cc1)NC(=O)[C@H](CCCCN)NC(=O)[C@H](CCCCN)NC(=O)CN)C(=O)N[C@@H](Cc1c[nH]c2ccccc12)C(=O)N[C@@H](Cc1ccccc1)C(=O)N[C@@H](Cc1c[nH]c2ccccc12)C(=O)N[C@@H](Cc1ccccc1)C(=O)N[C@@H](Cc1c[nH]c2ccccc12)C(=O)NCC(N)=O` [GKKYRRFWKFKGKWFWFWG], the MIC [10] was 3.03 µM (≈ 8 µg/mL), the MIC [11] was 3.03 µM (≈ 8 µg/mL) and the MIC [12] was 24.3 µM (≈ 64 µg/mL). The MIC [1] was 388 µM (≈ 1020 µg/mL), the MIC [2] was 388 µM (≈ 1020 µg/mL) and the MIC [13] was 6.06 µM (≈ 16 µg/mL). It also gave an MIC [14] of 6.06 µM (≈ 16 µg/mL), an MIC [15] of 6.06 µM (≈ 16 µg/mL) and an MIC [16] of 12.1 µM (≈ 32 µg/mL).

For `CC[C@H](C)[C@@H]1NC(=O)[C@H](CCCCN)NC(=O)[C@@H](NC(=O)[C@H](CCCCN)NC(=O)[C@H](C)NC(=O)[C@H](CCC(N)=O)NC(=O)[C@H](CC(=O)O)NC(=O)[C@H](CC(C)C)NC(=O)[C@H](CC(C)C)NC(=O)[C@H](CO)NC(=O)CNC(=O)CNC(=O)[C@@H](NC(=O)[C@H](CC(N)=O)NC(=O)[C@H](CCCCN)NC(=O)[C@H](Cc2ccccc2)NC(=O)[C@@H](NC(=O)[C@H](Cc2cnc[nH]2)NC(=O)[C@H](CCCCN)NC(=O)CNC(=O)[C@H](C)NC(=O)[C@@H](NC(=O)[C@H](CCCCN)NC(=O)[C@H](CC(C)C)NC(=O)[C@@H](NC(=O)CNC(=O)[C@H](CCCCN)NC(=O)[C@@H](NC(=O)[C@@H](NC(=O)[C@H](CO)NC(=O)[C@H](CCSC)NC(=O)[C@H](CC(C)C)NC(=O)CN)C(C)C)[C@@H](C)O)C(C)C)[C@@H](C)O)[C@@H](C)CC)C(C)C)CSSC[C@@H](C(=O)O)NC(=O)[C@H](CCC(N)=O)NC(=O)CNC(=O)[C@H](CO)NC1=O` [GLMSVTKGVLKTAGKHIFKNVGGSLLDQAKCKISGQC], the MIC [10] was 6 µM (≈ 22.9 µg/mL), the MIC [17] was ≥ 100 µM and the MIC [18] was 25 µM (≈ 95.4 µg/mL). For the same molecule, the MIC [2] was 3 µM (≈ 11.4 µg/mL), the MIC [19] was 12 µM (≈ 45.8 µg/mL) and the MIC [20] was 6 µM (≈ 22.9 µg/mL).

In the case of `CC[C@H](C)[C@H](N)C(=O)N[C@@H](CC(C)C)C(=O)N1CCC[C@H]1C(=O)N[C@H](C(=O)N[C@@H](CC(C)C)C(=O)N[C@@H](CO)C(=O)N[C@@H](CC(C)C)C(=O)N[C@H](C(=O)NCC(=O)NCC(=O)N[C@@H](CC(C)C)C(=O)N[C@@H](CC(C)C)C(N)=O)[C@@H](C)CC)[C@@H](C)CC` [ILPILSLIGGLL], the MIC [21] is reported as ≥ 125 µM, the MIC [22] is reported as ≥ 250 µM and the MIC [23] is reported as ≥ 250 µM. For the same molecule, the MIC [24] was ≥ 37.5 µM, the MIC [25] was ≥ 125 µM and the MIC [26] was ≥ 175 µM. The MIC (Escherichia coli AS1.349) was ≥ 125 µM, the MIC (Escherichia coli) was > 100 µM and the MIC [27] was ≥ 62.5 µM. For the same molecule, the MIC [28] was ≥ 50 µM, the MIC (Bacillus cereus) was ≥ 41 µM and the MIC [29] was ≥ 100 µM. The MIC [30] was ≥ 125 µM, the MIC [31] was ≥ 75 µM and the MIC [32] was ≥ 75 µM. The MIC [33] was ≥ 100 µM, the MIC [34] was ≥ 50 µM and the MIC [35] was ≥ 37.5 µM. The MIC (Bacillus cereus AS1.126) was ≥ 62.5 µM, the MIC (Lactococcus lactis) was ≥ 41 µM and the MIC (Staphylococcus aureus) was 41 µM (≈ 50 µg/mL). For the same molecule, the MIC [36] was ≥ 62.5 µM.

Source: DBAASP
